According to publication PMC6302903, “Protein and Chemical Determinants of BL-1249 Action and Selectivity for K2P Channels” (ACS Chemical Neuroscience, 2018):

What was measured:
K2P4.1(TRAAK) = target: T1, K2P4.1(TRAAK) (Mus musculus, UniProt O88454); assay: TEVC of K2P4.1(TRAAK) in Xenopus oocytes; type: cell-based; details: I/I0 at 0 mV
T1 construct: expressed in transfected cells; host or cells: Xenopus laevis oocytes injected with mRNA made from pGEMHE/pMO
T1 sequence (O88454 1-398): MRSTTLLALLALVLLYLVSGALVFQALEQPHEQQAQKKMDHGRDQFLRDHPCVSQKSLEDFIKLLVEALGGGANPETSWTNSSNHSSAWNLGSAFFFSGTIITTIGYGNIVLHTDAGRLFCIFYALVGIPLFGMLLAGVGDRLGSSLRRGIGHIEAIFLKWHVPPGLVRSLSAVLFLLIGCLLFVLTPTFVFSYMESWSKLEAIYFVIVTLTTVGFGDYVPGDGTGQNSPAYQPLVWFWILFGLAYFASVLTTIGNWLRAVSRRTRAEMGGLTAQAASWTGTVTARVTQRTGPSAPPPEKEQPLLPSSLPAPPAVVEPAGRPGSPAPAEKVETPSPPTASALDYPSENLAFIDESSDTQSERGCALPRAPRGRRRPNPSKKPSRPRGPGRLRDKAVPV
From the text: (§1) Constructs for murine K2P channels, including K2P2.1(TREK-1) (Gene ID 16526), K2P10.1(TREK-2) (Gene ID 72258), K2P4.1(TRAAK) (Gene ID 16528), K2P5.1(TASK-2) (Gene ID 16529), K2P3.1(TASK-1) (Gene ID 16527), K2P9.1(TASK-3) (Gene ID 223604), and K2P18.1(TRESK) (Gene ID 332396) in pGEMHE/pMO, were used for Xenopus oocyte experiments as previously described.[10],[26] Murine K2P2.1(TREK-1) (Gene ID 16526) was expressed in HEK-293 cells using a pIRES-EGFP construct as previously described.[26] Murine K2P13.1(THIK-1) (Gene ID 217826) and K2P1.1(TWIK-1) (Gene ID 16525) were cloned into pGEMHE/pMO for use in Xenopus oocytes. Chimeras were designed using EMBOSS Needle pairwise sequence alignment tool[58] to match homologous helices in K2P2.1(TREK-1) and K2P4.1(TRAAK) and were assembled using the Gibson assembly method.[59] Chimera boundaries are Thr152 (TREK-1/AAK M2-C), Trp199 (TREK-1/AAK M3-C), Y272 (TREK-1/AAK M4-C), Thr114 (TRAAK/EK-1 M2-C), Trp161 (TRAAK/EK-1 M3-C), and Tyr234 K2P4.1(TRAAK). All sequences were verified using DNA sequencing.
(§2) Xenopus laevis oocytes were harvested in accordance with UCSF IACUC protocol AN129690 and digested in calcium-free ND-96 (96 mM NaCl, 2 mM KCl, 3.8 mM MgCl2) immediately following harvest, as previously described.[6],[10] Digested oocytes were maintained in standard ND96 (96 mM NaCl, 2 mM KCl, 1.8 mM CaCl2, 2 mM MgCl2) with antibiotics (100 units mL^–1 penicillin, 100 μg mL^–1 streptomycin, 50 μg mL^–1 gentimycin). Defolliculated stage V–VI oocytes were injected with 0.2–6.0 ng of mRNA in 50 nL, and currents were recorded 24–48 h after injection. mRNA was synthesized from plasmid DNA using mMessage mMachine Kit (T7 promoter, Ambion, Life Technologies) and purified using RNEasy Kit (Qiagen). Injected oocytes were impaled with two standard microelectrodes (0.2–1.0 MΩ) filled with 3 M KCl and subjected to constant perfusion of standard ND96 during recording. Currents were amplified using the GeneClamp 500B (MDS Analytical Technologies) amplifier controlled by the pClamp software (Molecular Devices). Data were digitized at 1 kHz using Digidata 1332A (MDS Analytical Technologies). For all experiments with small molecules, basal currents were evoked using 1 s long ramps from −150 to +50 mV under constant perfusion of ND96. Once stabilized basal currents were recorded, compounds were perfused at various concentrations in standard ND96 and currents were allowed to increase to stabilization before recording final current. Fold activation upon compound application is expressed as I/I0 (0 mV), derived from the current at 0 mV in the presence of compound divided by the basal current at 0 mV in standard ND96 without compound. Data were analyzed and plotted using Graphpad Prism Version 5 (GraphPad Software, San Diego California USA, www.graphpad.com). […] In the case of BL-1249-acid EC50 estimation, upper bound of I/I0 was set to 20 to account for the strong stimulation of BL-1249-acid.

K2P2.1(TREK-1) = target: T2, K2P2.1(TREK-1) (Mus musculus, UniProt P97438); assay: TEVC of K2P2.1(TREK-1) in Xenopus oocytes; type: cell-based; parameters: expressed in transfected cells; host or cells: Xenopus laevis oocytes injected with mRNA made from pGEMHE/pMO; details: for effect on K2P2.1(TREK-1) current (in words): dose-response
T2 sequence (P97438 1-411 isoform P97438-2): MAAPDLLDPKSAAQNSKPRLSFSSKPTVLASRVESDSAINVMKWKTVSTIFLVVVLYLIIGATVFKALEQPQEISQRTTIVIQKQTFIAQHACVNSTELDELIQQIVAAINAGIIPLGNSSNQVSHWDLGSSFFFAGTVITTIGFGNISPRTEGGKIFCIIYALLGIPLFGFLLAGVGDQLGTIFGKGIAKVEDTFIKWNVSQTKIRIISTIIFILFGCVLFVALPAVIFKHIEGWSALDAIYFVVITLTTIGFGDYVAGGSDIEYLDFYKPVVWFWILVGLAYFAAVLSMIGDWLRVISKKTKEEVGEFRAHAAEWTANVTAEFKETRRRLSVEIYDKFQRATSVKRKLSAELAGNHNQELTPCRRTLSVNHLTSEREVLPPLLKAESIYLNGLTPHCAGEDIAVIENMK
From the text: as §1, §2

K2P18.1(TRESK) = system: K2P18.1(TRESK); parameters: method as in PMID 27641472; details: cited from earlier work
TREK-1/AAK M4-C = target: T3, TREK-1/AAK M4-C (Mus musculus, UniProt O88454+P97438); assay: TEVC of chimera TREK-1/AAK M4-C; type: cell-based; details: Xenopus oocytes
T3 construct: Y272 (TREK-1/AAK M4-C); expressed in transfected cells; host or cells: Xenopus laevis oocytes, mRNA injected; chimera built by Gibson assembly
T3 sequence (P97438+O88454 with tags, fused parts or gaps P97438:V273L/P97438:V280F/P97438:A287S/P97438:S290T/P97438:M291T/P97438:D294N): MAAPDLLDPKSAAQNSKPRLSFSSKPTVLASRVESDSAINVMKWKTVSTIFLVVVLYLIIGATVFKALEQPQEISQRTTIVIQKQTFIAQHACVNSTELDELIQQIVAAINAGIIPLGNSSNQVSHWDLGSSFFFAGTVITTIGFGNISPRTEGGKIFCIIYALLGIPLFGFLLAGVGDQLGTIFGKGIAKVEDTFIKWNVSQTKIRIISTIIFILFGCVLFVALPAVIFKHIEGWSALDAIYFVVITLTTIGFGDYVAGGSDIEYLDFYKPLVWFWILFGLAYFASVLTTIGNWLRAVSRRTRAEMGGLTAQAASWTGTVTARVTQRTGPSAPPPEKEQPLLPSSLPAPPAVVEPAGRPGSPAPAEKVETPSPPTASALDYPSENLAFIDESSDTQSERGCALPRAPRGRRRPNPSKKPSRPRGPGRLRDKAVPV

TREK-1/AAK M3-C = target: T4, TREK-1/AAK M3-C (Mus musculus, UniProt O88454+P97438); assay: TEVC of chimera TREK-1/AAK M3-C; type: cell-based; details: Xenopus oocytes
T4 construct: Trp199 (TREK-1/AAK M3-C); expressed in transfected cells; host or cells: Xenopus laevis oocytes, mRNA injected; chimera built by Gibson assembly
T4 sequence (P97438+O88454 with tags, fused parts or gaps P97438:N200H/P97438:S202P/P97438:Q203P/P97438:T204G/P97438:K205L/P97438:I206V/P97438:I208S/P97438:I209L/P97438:T211A/P97438:I212V/P97438:I213L/P97438:I215L/P97438:F217I/P97438:V220L/P97438:A224L/P97438:L225T/P97438:A227T/P97438:V228F/P97438:I229V/P97438:K231S/P97438:H232Y/P97438:I233M/P97438:G235S/P97438:A238K/P97438:D240E/P97438:V246I/P97438:I247V/P97438:I252V/P97438:A259P/P97438:G261D/P97438:S262G/P97438:D263T/P97438:I264G/P97438:E265Q/P97438:Y266N/P97438:L267S/P97438:D268P/P97438:F269A/P97438:K271Q/P97438:V273L/P97438:V280F/P97438:A287S/P97438:S290T/P97438:M291T/P97438:D294N): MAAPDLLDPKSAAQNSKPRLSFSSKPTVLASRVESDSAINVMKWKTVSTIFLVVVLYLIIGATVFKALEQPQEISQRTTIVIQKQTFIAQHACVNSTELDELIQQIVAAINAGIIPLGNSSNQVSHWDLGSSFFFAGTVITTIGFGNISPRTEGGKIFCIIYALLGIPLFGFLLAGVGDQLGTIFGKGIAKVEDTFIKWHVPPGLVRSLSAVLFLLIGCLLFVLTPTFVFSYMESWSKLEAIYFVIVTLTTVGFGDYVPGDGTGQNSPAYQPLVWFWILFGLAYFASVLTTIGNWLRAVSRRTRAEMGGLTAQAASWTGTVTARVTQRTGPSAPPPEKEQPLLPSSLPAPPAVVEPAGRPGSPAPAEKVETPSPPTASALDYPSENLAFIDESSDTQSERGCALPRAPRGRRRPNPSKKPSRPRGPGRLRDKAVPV

TREK-1/AAK M2-C = TREK-1/AAK M2-C (Mus musculus, UniProt O88454+P97438); assay: TEVC of chimera TREK-1/AAK M2-C; type: cell-based; details: Xenopus oocytes
Sequence of TREK-1/AAK M2-C (P97438 16-167, one chain of several): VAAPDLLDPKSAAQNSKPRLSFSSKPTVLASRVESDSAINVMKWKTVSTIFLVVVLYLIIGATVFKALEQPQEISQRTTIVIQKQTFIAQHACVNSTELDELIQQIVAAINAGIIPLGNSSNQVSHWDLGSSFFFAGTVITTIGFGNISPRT

TRAAK/EK-1 M4-C = target: T5, TRAAK/EK-1 M4-C (Mus musculus, UniProt O88454+P97438, F242V/L235V/N256D/S249A/T252S/T253M); assay: TEVC of chimera TRAAK/EK-1 M4-C; type: cell-based; details: Xenopus oocytes
T5 construct: and Tyr234 K2P4.1(TRAAK); expressed in transfected cells; host or cells: Xenopus laevis oocytes, mRNA injected; chimera built by Gibson assembly
T5 sequence (O88454+P97438 fused with the stated changes): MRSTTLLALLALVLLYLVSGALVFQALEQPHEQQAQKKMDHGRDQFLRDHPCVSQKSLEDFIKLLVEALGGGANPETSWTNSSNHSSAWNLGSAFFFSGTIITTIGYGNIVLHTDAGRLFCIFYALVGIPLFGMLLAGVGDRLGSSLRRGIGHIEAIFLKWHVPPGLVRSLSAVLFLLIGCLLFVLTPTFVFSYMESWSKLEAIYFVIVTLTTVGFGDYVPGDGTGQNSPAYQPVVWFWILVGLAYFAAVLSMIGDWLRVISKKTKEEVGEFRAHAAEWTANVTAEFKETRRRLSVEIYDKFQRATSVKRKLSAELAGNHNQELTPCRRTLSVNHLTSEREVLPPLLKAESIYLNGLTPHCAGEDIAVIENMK

TRAAK/EK-1 M3-C = target: T6, TRAAK/EK-1 M3-C (Mus musculus, UniProt O88454+P97438, A173T/A231F/D223G/E202D/F190V/F242V/G166T/G224S/G226I/H162N/I179F/I208V/K200A/L167K/L171I/L175I/L177I/L182V/L186A/L235V/M195I/N228Y/N256D/P164S/P165Q/P221A/P230D/Q227E/Q233K/S170I/S193K/S197G/S229L/S249A/T187L/T189A/T225D/T252S/T253M/V168I/V174I/V191I/V209I/V214I/Y194H); assay: TEVC of chimera TRAAK/EK-1 M3-C; type: cell-based; details: Xenopus oocytes
T6 construct: Trp161 (TRAAK/EK-1 M3-C); expressed in transfected cells; host or cells: Xenopus laevis oocytes, mRNA injected; chimera built by Gibson assembly
T6 sequence (O88454+P97438 fused with the stated changes): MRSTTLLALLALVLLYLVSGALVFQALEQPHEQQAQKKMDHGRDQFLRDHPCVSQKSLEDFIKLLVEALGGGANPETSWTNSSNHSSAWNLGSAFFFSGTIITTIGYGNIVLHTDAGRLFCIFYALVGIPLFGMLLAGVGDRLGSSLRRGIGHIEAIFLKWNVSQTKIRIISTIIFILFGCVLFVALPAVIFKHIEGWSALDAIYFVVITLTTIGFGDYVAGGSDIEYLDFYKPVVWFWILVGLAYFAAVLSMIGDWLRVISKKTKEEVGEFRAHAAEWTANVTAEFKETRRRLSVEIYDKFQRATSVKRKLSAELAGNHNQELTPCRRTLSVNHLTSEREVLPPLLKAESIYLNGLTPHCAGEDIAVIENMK

TRAAK/EK-1 M2-C = target: T7, TRAAK/EK-1 M2-C (Mus musculus, UniProt O88454+P97438, A151S/D143N/F160Y/H141A/P165L/Q138H/R166H/S147A/S164V/V139S/V154I); assay: TEVC of chimera TRAAK/EK-1 M2-C; type: cell-based; details: Xenopus oocytes
T7 construct: Thr114 (TRAAK/EK-1 M2-C); expressed in transfected cells; host or cells: Xenopus laevis oocytes, mRNA injected; chimera built by Gibson assembly
T7 sequence (O88454+P97438 fused with the stated changes): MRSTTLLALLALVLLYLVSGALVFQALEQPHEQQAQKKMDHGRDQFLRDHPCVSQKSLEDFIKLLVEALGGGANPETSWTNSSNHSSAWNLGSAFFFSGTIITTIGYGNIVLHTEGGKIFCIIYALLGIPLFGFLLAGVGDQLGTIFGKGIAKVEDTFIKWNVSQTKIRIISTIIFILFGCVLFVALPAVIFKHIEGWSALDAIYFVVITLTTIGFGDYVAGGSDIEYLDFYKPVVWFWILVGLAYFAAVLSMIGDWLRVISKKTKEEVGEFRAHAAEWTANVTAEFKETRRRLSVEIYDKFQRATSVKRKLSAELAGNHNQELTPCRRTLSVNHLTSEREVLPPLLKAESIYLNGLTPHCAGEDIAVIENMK

[1] = extracellular application, fold activation I/I0 at 0 mV

Structure (SMILES) | EC50 (K2P4.1(TRAAK)) [µM] | effect on K2P2.1(TREK-1) current (in words) (K2P2.1(TREK-1)) | EC50 (K2P2.1(TREK-1); [1]) [µM] | further results
c1ccc(Nc2ccccc2-c2nnn[nH]2)cc1 [BL-1249-Ph] | > 200 | only a small amount of stimulatory effect | > 200 | 
O=C(O)c1ccccc1Nc1cccc2c1CCCC2 [BL-1249-acid] | > 200 | stronger stimulatory effect on the current than either BL-1249 or BL-1249-amide |  | functional effect on K2P18.1(TRESK) (K2P18.1(TRESK)): inhibitor; loss of potency on K2P2.1(TREK-1) relative to BL-1249-amide (K2P2.1(TREK-1)): ~2 fold; EC50 (K2P2.1(TREK-1); EC50 estimated imposing an upper boundary of 20 (fold activation, I/I0)): 44 ± 10 µM
NC(=O)c1ccccc1Nc1cccc2c1CCCC2 [BL-1249-amide] | > 200 |  | 22 ± 8 | 
c1ccc2c(c1)Nc1c(-c3nnn[nH]3)cccc1C21CCCCC1 [BL-1249-tricycle] | 42 ± 9 | inhibition between 0.1 and 10 μM followed by activation at higher concentrations | 34 ± 6 | 
CC1(C)c2cc(Cl)ccc2N(CCc2nn[nH]n2)c2ccc(Cl)cc21 [ML67-33] |  |  |  | EC50 (TREK-1/AAK M4-C): 42 ± 3 µM; EC50 (TREK-1/AAK M3-C): 49 ± 22 µM; EC50 (TREK-1/AAK M2-C): 42 ± 3 µM; EC50 (TRAAK/EK-1 M4-C): 31 ± 3 µM; EC50 (TRAAK/EK-1 M3-C): 44 ± 14 µM; EC50 (TRAAK/EK-1 M2-C): 33 ± 1 µM
